The test system of test [1] is Leishmania tropica. As to the kind of experiment: Leishmania uptake of PCs by fluorescence microscopy. In kind it is cell-based. Particulars: fluorescent microscopy, Cy5 filter, exposure in the dark. The procedure:
(§1) Leishmania were suspended to 5×10^7-10^8 cells ml^−1 in HBSS-BSA for exposure to serial dilutions of PCs 1-4 in the dark overnight. Controls included cells exposed to diluent alone. J774 macrophages were treated as monolayer in HBSS-BSA or culture medium under otherwise the same conditions. All cultures were kept in the dark for various time periods up to 24 hrs.
Nikon Eclipse 80i and TE2000-S microscopes with CCD cameras were used with Metamorphosis (version 6.1) or NIS Elements version AR 4.20.01 software for image capture and analysis. Concentrated cells (˜3 μl) on a glass slide under an 18 mm^2 glass coverslip were first scanned under phase contrast to localize cells. […] GFP/CFSE fluorescent Leishmania were further examined by using the FITC filter set. Images captured under different settings were merged by using the software programs mentioned. The filter sets (Chroma Technology Co., Brattleboro, Vt.) used were: (1) HQ620/60 (620-nm exciter), Q660LP (660-nm dichroic), and HQ700/80 (700-nm emitter) for phthalocyanines; and (2) HQ480/40 (480-nm exciter), Q505LP (505-nm dichroic), and HQ535/50 (535-nm emitter) for GFP and CFSE.

The subject of test [2] is Leishmania tropica. Kind of test: Microscopy of Leishmania photolysis after PC sensitization and red light. In kind it is cell-based. The conditions noted are these: PC1/PC2: followed by red light; PC3/PC4: with or without red light. The protocol:
as §1
Control and PC-sensitized Leishmania were washed and suspended in HBSS-BSA. The cell suspensions in 24-well culture plates and monolayers of J774 macrophages in 25 cm^2 TC flasks were exposed from the bottom to red light (wavelengths >650 nm) via a red filter (Smith-Victor Co., Barlett, Ill., USA; part #650021) over a light box for 20-30 min at a fluence of 1-2 J cm^2.
Nikon Eclipse 80i and TE2000-S microscopes with CCD cameras were used with Metamorphosis (version 6.1) or NIS Elements version AR 4.20.01 software for image capture and analysis. Concentrated cells (˜3 μl) on a glass slide under an 18 mm^2 glass coverslip were first scanned under phase contrast to localize cells. […] GFP/CFSE fluorescent Leishmania were further examined by using the FITC filter set. Images captured under different settings were merged by using the software programs mentioned. […]

In the case of “triethylene glycol substituted Zn(II)-phthalocyanine [PC4]”, in the test with Leishmania tropica [1], the “uptake by Leishmania (PC fluorescence in cells)” value is recorded as “no uptake”. Also, the “motility and structural integrity after PC sensitization” value in the test with Leishmania tropica [2] is “retained their motility and cellular integrity”.

Source of the values: patent US20170042989A1, “PHOTOSENSITIZED TRYPANOSOMATIDS AND VACCINE COMPOSITIONS THEREOF” (ROSALIND FRANKLIN UNIVERSITY OF MEDICINE AND SCIENCE, priority 2015, published 2017).
